Tested on: platelet protein palmitoylation
Experiment: Incorporation of [3H]-palmitate into platelet proteins
Type: cell-based
Conditions: 100 μM compound; 20 μM or 200 μM SFLLRN
Protocol: Platelets were labeled with [^3H]-palmitate for 2 hours in the absence (lanes 1, 2, and 3) or presence (lanes 4, 5, and 6) of 100 μM JF081204{5C} for 2 hours. Labeled platelets were then incubated with 0 μM ([…]), 20 μM (lanes 2 and 5), or 200 μM SFLLRN (lanes 3 and 6). Platelet samples were lysed, separated by SDS-PAGE, Western blotted, and visualized with a tritium imager screen (Panel a). The activation of platelets by SFLLRN led to an increase incorporation of [^3H]-palmitate into platelet proteins, whereas the presence of JF081204{5C} inhibited this activation-dependent [^3H]-palmitate incorporation (Panel b). Western blot membrane from panel (a) was stained with Ponceau S to visualize proteins in the platelet lysates.
The incorporation of [^3H]-palmitate into platelet intracellular proteins was examined to determine the effect of JF081204{5C} on platelet protein palmitoylation. […] Exposure of platelets to either 20 μM or 200 μM SFLLRN increased the intensity of the labeling. Incubation of platelets with 100 μM of JF081204{5C} inhibited the increase in [^3H]-palmitate incorporation induced by either 20 μM or 200 μM SFLLRN.

`CCCCCn1c2c(c(=N)c3ccccc31)CCC2` [JF081204{5C}] was tested, and the “Increase in [3H]-palmitate incorporation induced by SFLLRN” value was “inhibited”.

From US20070060605A1, “Compositions and methods for inhibiting platelet activation and thrombosis” (priority 2001, published 2007)
